Experimental data reported in PMC4429288 (The Journal of antibiotics, 2014).
Structures can show the parent of a compound that is named as a salt.

What was measured:
[1] = tested on: S. aureus (MRSA, VISA and VRSA strains); assay: MIC, broth microdilution; format: cell-based, Staphylococcus aureus
[2] = tested on: S. epidermidis ATCC 35984; assay: MIC, broth microdilution; format: cell-based; conditions: Staphylococcus epidermidis, ATCC35984
[3] = tested on: S. aureus (MRSA, VISA and VRSA strains); assay: MBC, plating from MIC wells; format: cell-based, Staphylococcus aureus
[4] = tested on: methicillin-resistant Staphylococcus aureus (MRSA); assay: Single-step resistance selection; format: cell-based; conditions: 4 × MIC; for Single-step frequency of resistance: resistant colonies per inoculum
MRSA NRS123 (USA400) = assay: Time-kill analysis
[5] = Staphylococcus aureus, ATCC43300|MRSA|VISA|VRSA
[6] = Staphylococcus aureus, MRSA|NRS107|VISA|VRSA
[7] = Staphylococcus aureus, MRSA|NRS119|VISA|VRSA
[8] = Staphylococcus aureus, MRSA|NRS123|USA400|VISA|VRSA
[9] = Staphylococcus aureus, MRSA|NRS194|VISA|VRSA
[10] = Staphylococcus aureus, MRSA|NRS384|USA300|VISA|VRSA
[11] = Staphylococcus aureus, MRSA|NRS385|USA500|VISA|VRSA

CN[C@H](CC(C)C)C(=O)N[C@H]1C(=O)N[C@@H](CC(N)=O)C(=O)N[C@H]2C(=O)N[C@H]3C(=O)N[C@H](C(=O)N[C@H](C(=O)O)c4cc(O)cc(O)c4-c4cc3ccc4O)[C@H](O)c3ccc(c(Cl)c3)Oc3cc2cc(c3O[C@@H]2O[C@H](CO)[C@@H](O)[C@H](O)[C@H]2O[C@H]2C[C@](C)(N)[C@H](O)[C@H](C)O2)Oc2ccc(cc2Cl)[C@H]1O [Vancomycin, vancomycin hydrochloride]
MIC [1, 5]: 0.74 µg/mL
MIC [1, 6]: 0.74 µg/mL
MIC [1, 7]: 0.74 µg/mL
MIC [1, 8]: 0.37 µg/mL
MIC [1, 9]: 0.74 µg/mL
MIC [1, 10]: 0.74 µg/mL
MIC [1, 11]: 0.74 µg/mL
MIC [2]: 0.74 µg/mL
MBC [3, 5]: 0.74 µg/mL
MBC ([3]; Staphylococcus aureus, MRSA|NRS1|VISA|VRSA): 2.97 µg/mL
MBC ([3]; Staphylococcus aureus, MRSA|NRS19|VISA|VRSA): 2.97 µg/mL
MBC ([3]; Staphylococcus aureus, MRSA|NRS37|VISA|VRSA): 2.97 µg/mL
MBC [3, 6]: 1.49 µg/mL
MBC [3, 7]: 1.49 µg/mL
MBC [3, 8]: 0.37 µg/mL
MBC [3, 9]: 0.74 µg/mL
MBC [3, 10]: 0.74 µg/mL
MBC [3, 11]: 0.74 µg/mL
Single-step frequency of resistance ([4]; MRSA NRS119): >8.47×10^−10
Single-step frequency of resistance ([4]; MRSA NRS123 (USA400)): >2.33×10^−10
Single-step frequency of resistance ([4]; MRSA NRS384 (USA300)): 3.03×10^−10
Single-step frequency of resistance ([4]; MRSA NRS385 (USA500)): >3.31×10^−10
Time to 3-log10 reduction in CFUml^−1 (MRSA NRS123 (USA400); 2 × MIC): ≤ 24 h
Time to complete elimination of MRSA (MRSA NRS123 (USA400); 2 × MIC): not able to eliminate all bacteria completely
Time to complete elimination of MRSA (MRSA NRS123 (USA400); 4 × MIC): 24 h
Time to complete elimination of MRSA (MRSA NRS123 (USA400); 8 × MIC): 24 h

teicoplanin
MIC ([1]; MRSA ATCC 43300): 0.94 µg/mL
MIC ([1]; MRSA NRS107): 0.94 µg/mL
MIC ([1]; MRSA NRS119): 0.94 µg/mL
MIC ([1]; MRSA NRS123 (USA400)): 0.94 µg/mL
MIC ([1]; MRSA NRS194): 0.94 µg/mL
MIC ([1]; MRSA NRS384 (USA300)): 0.94 µg/mL
MIC ([1]; MRSA NRS385 (USA500)): 0.94 µg/mL
MIC ([1]; VISA NRS1): 3.76 µg/mL
MIC ([1]; VISA NRS19): 0.94 µg/mL
MIC ([1]; VISA NRS37): 7.52 µg/mL
MIC range ([1]; VISA strains): 0.94 to 7.52 µg/mL
MIC ([1]; VRSA VRS1): 120.30 µg/mL
MIC ([1]; VRSA VRS4): 60.15 µg/mL
MIC ([1]; VRSA VRS5): 60.15 µg/mL
MIC range ([1]; all three VRSA strains): 60.51 to 120.30 µg/mL
MBC ([3]; MRSA ATCC 43300): 3.76 µg/mL
MBC ([3]; MRSA NRS107): 0.94 µg/mL
MBC ([3]; MRSA NRS119): 0.94 µg/mL
MBC ([3]; MRSA NRS123 (USA400)): 15.04 µg/mL
MBC ([3]; MRSA NRS194): 15.04 µg/mL
MBC ([3]; MRSA NRS384 (USA300)): 15.04 µg/mL
MBC ([3]; MRSA NRS385 (USA500)): 3.76 µg/mL
MBC ([3]; VISA NRS1): 7.52 µg/mL
MBC ([3]; VISA NRS19): 0.94 µg/mL
MBC ([3]; VISA NRS37): 7.52 µg/mL
MBC ([3]; VRSA VRS1): 240.60 µg/mL
MBC ([3]; VRSA VRS4): 60.15 µg/mL
MBC ([3]; VRSA VRS5): 60.15 µg/mL
MBC relative to MIC ([3]; three strains of MRSA (NRS194, USA300, and USA400)): 16 fold
MBC relative to MIC ([3]; two additional MRSA strains): four
Single-step frequency of resistance ([4]; MRSA NRS107): 1.91×10^−8
Single-step frequency of resistance ([4]; MRSA NRS119): 2.73×10^−7
Single-step frequency of resistance ([4]; MRSA NRS123 (USA400)): 2.21×10^−9
Single-step frequency of resistance ([4]; MRSA NRS384 (USA300)): 3.03×10^−9
Single-step frequency of resistance ([4]; MRSA NRS385 (USA500)): 1.79×10^−8
Mutation frequency range ([4]; five MRSA strains): 2.73×10^−7 to 3.03×10^−9
Time to complete elimination of MRSA (MRSA NRS123 (USA400); 2 × MIC): 24 h
Time to complete elimination of MRSA (MRSA NRS123 (USA400); 4 × MIC): 24 h
Time to complete elimination of MRSA (MRSA NRS123 (USA400); 8 × MIC): 24 h
